# Measured values taken from US6787527B1, “Methods of preventing and treating HIV infection” (Duke University, priority 1994, dated 2004).
# Key:
# [1] = target: T1, recombinant CD4 with gp120 from HIV-1-IIIB (UniProt P01730+P04578); assay: CD4-gp120 binding, gp120 from HIV-1-IIIB
# T1 construct: gp120 from HIV-1-IIIB
# Procedure: (§1) Cobalamins were incubated with CD4 and gp120 from HIV-1-IIIB in wells of microtiter wells, and binding was assessed as previously described. […] Serum from an HIV-1-infected person containing anti-gp120 antibody served as the “positive control”.
# (§2) To determine whether cobalamins modified the binding of HIV-1 gp120 to CD4, the abilities of CN-Cbl, OH-Cbl, Me-Cbl, and Ado-Cbl to inhibit binding of recombinant CD4 with gp120 from HIV-1-IIIB or HIV-1-MN were tested (FIG. 2). No inhibition of binding was observed.
# HIV-1-BaL [2] = assay: HIV-1 infection of monocytes / mononuclear phagocytes (Mo, Mac), supernatant medium RT activity; type: cell-based; conditions: for inhibition of productive HIV-1 infection: Mo, Mac, added at viral inoculation and left in throughout culture
# Procedure: (§3) Monocytes and lymphocytes were isolated and cultured as previously described (J. Exp. Med. 174:1477 (1991)). Briefly, monocytes were isolated by sequential ficoll-sodium diazotrate and Percoll gradients with subsequent adherence to cultureware plastic, and then cultured in Dulbecco's modified Eagle medium (GIBCO, Grand Islands, N.Y.) with 10% unheated human serum. Lymphocytes were from ficoll-sodium diazotrate gradients, and were cultured with anti-CD3/anti-CD28 antibody and subsequently IL-2. Reverse transcription (RT) was measured as described (Weinberg et al, J. Exp. Med. 174:1477 (1991)) using a phosphoimager device for quantification. Leukemia cell lines Jurkat, CEM, HL-60, and U937 were obtained from American Type Culture Collection (Rockville, Md.). The cells were cultured in RPMI-1640 with 10% fetal bovine serum (Hyclone, Logan, Utah). Cobalamins were obtained from Sigma Chemical Company (St. Louis, Mo.). The cobalamins had extremely low endotoxin content, as determined by Limulus amebocyte lysate testing (Whitaker Bioproducts, Walkerville, Md.). When tested as a 3 mM solution, the cobalamins had less than 0.25 EU/ml. Cobalamins were not toxic for Mo, Mac, Lym, and leukemia cell line cells, as determined by morphology under phase microscopy, Wright staining of methanol-fixed cells, trypan blue exclusion, and thymidine incorporation were carried out in accordance with standard techniques.
# Monocytes were inoculated at time zero with HIV-1-Bal (Weinberg et al, J. Exp. Med. 174:1477 (1991)) (MOI ˜0.1)and cultured with the designated cobalamin for 7-14 days. Supernatant medium RT was then measured (Weinberg et al, J. Exp. Med. 174:1477 (1991)). Results are provided as RT activity (mean±SEM of triplicates)and are derived from one experiment.
# [3] = target: T2, recombinant CD4 with gp120 from HIV-1-MN (UniProt P01730+P05877); assay: CD4-gp120 binding, gp120 from HIV-1-MN
# T2 construct: recombinant CD4 with gp120 from HIV-1-IIIB or HIV-1-MN
# Procedure: as §1, §2
# HIV-1-IIIB [4] = assay: HIV-1 infection of PBL, supernatant medium RT activity; type: cell-based; conditions: added at viral inoculation and left in throughout culture
# Procedure: as §3
# (§4) PBL were inoculated with HIV-1-IIIB (MOI ˜0.1) and cultured with the designated cobalamin for 15-25 days. Supernatant medium RT was then measured. Results are provided as RT activity (mean±SEM of triplicates) and are derived from one experiment.
# RT = target: T3, RT (Human immunodeficiency virus type 1 group M subtype B, UniProt P04585); assay: RT activity in cell-free medium; type: biochemical, HIV-1; conditions: 1 to 1000 μM added to cell-free medium containing RT
# T3 construct: added to cell-free medium containing RT
# HIV-1-IIIB [5] = assay: HIV-1 infection of leukemia cell lines Jurkat, CEM, HL-60, U937, supernatant medium RT activity; type: cell-based; conditions: HL-60, U937 cell lines
# Procedure: as §3
# as §4, with “Cells of the T lymphoblast cell line Jurkat and CEM, the myeloblast cell line HL-60, and the monoblast cell line U937” for “PBL”, “cultured for” for “cultured”, “10-20” for “15-25”
# [6] = humans, 5 to 7 grams by bolus intravenous infusion; cited from earlier work
# [7] = tested on: Mo, Mac, PBL, human leukemia cell lines Jurkat, CEM, HL-60, U937; assay: Toxicity for cells (morphology, Wright staining, trypan blue exclusion, thymidine incorporation); type: cell-based; conditions: concentrations ≦600 μM
# Procedure: as §3, with “When tested as a 3 mM solution, the cobalamins had less than 0.25 EU/ml.” left out
# HIV-1-BaL [8] = assay: Syncytium (multinucleated giant cell) formation in HIV-1-inoculated monocytes; type: cell-based; conditions: 67 μM, HIV-1-BaL MOI ~0.1, 14 days
# Procedure: OH-Cbl, Me-Cbl, Ado-Cbl, and CN-Cbl were not toxic for Mo, Mac, PBL, or cells of the human leukemia cell lines Jurkat, CEM, HL-60, or U937 at concentrations ≦600 μM. When added to the cultures of Mo, Mac, or PBL at the time of viral inoculation on day zero and left in throughout the culture period, there was potent inhibition of productive infection as judged by supernatant medium RT activity (see FIG. 1). Further evidence of the cobalamin inhibitory effect was derived from studies examining syncytium formation. Populations of monocytes not inoculated with virus were generally mononuclear, while those inoculated with HIV-1-BaL (MOI ˜0.1) cultured (14 days) without OH-Cbl (67 μM) had numerous multinucleated giant cells (syncytium).
# [9] = tested on: U1 cells and OM-10.1 cells (HIV-1 integrated provirus); assay: TNF- or PMA-induced viral RT expression in latently-infected leukemia cells; type: cell-based, human; conditions: 250 μM; 500 U/ml TNF or 80 nM PMA; U1 and OM-10.1 cells
# Procedure: To determine whether OH-Cbl would inhibit the ability of latently-infected leukemia cells to produce RT after stimulation with tumor necrosis factor (TNF) or phorbol myristate acetate (PMA), U1 (U937 monoblastic cell line with HIV-1 integrated provirus) cells (NIH AIDS Repository) and OM-10.1 cells (HL-60 myelobastic cell line with HIV-1 integrated provirus) (Dr. Clay Smith, Duke University, Durham, N.C.) were treated with 500 U/ml TNF or 80 nM PMA (with or without 250 μM OH-Cbl).
Compound,inhibition of CD4-gp120 binding [1],inhibition of productive HIV-1 infection (HIV-1-BaL [2]),inhibition of CD4-gp120 binding [3],inhibition of productive HIV-1 infection (HIV-1-IIIB [4]),inhibition of RT activity (RT),inhibition of HIV-1 infection (HIV-1-IIIB [5]),resultant serum levels [6],side effects [6],"inhibition of HIV-1 infection (HIV-1-BaL [2]; Mo incubated simultaneously with 250 μM and HIV-1 for 4 hours, washed, cultured 10 days)","inhibition of subsequent RT production (HIV-1-BaL [2]; Mo inoculated and cultured 6 days, washed, then cultured with 250 μM)","inhibition of RT (HIV-1-BaL [2]; Mo pretreated with 250 μM for 24 hours, washed, then inoculated with HIV-1-BaL)",toxicity for cells [7],inhibition of syncytium formation (HIV-1-BaL [8]),inhibition of expression of induced viral RT [9],"inhibitory effect in vitro (HIV-1-BaL [2]; in vitro, summary statement)"
"C/C1=C2/[N-]C([C@H](CC(N)=O)[C@@]2(C)CCC(=O)NC[C@@H](C)OP(=O)([O-])O[C@H]2[C@@H](O)[C@@H](n3cnc4cc(C)c(C)cc43)O[C@@H]2CO)[C@]2(C)N=C(/C(C)=C3N=C(/C=C4N=C1[C@@H](CCC(N)=O)C\4(C)C)[C@@H](CCC(N)=O)[C@]\3(C)CC(N)=O)[C@@H](CCC(N)=O)[C@]2(C)CC(N)=O.[CH2-][C@H]1O[C@@H](n2cnc3c(N)ncnc32)[C@@H](O)[C@@H]1O.[Co+3] [Ado-Cbl, adencobalamin]",No inhibition,inhibited,No inhibition,inhibited,inhibition of RT activity was not observed,did not inhibit,,,,,,,,,
"C/C1=C2/[N-][C@H]([C@H](CC(N)=O)[C@@]2(C)CCC(=O)NC[C@@H](C)OP(=O)([O-])O[C@H]2[C@@H](O)[C@@H](n3cnc4cc(C)c(C)cc43)O[C@@H]2CO)[C@]2(C)N=C(/C(C)=C3N=C(/C=C4N=C1[C@@H](CCC(N)=O)C\4(C)C)[C@@H](CCC(N)=O)[C@]\3(C)CC(N)=O)[C@@H](CCC(N)=O)[C@]2(C)CC(N)=O.[Co+3].[OH-] [OH-Cbl, hydroxocobalamin]",No inhibition,inhibited,No inhibition,inhibited,inhibition of RT activity was not observed,did not inhibit,μM to mM,minimal,no inhibition,no inhibition,approximately 80%,not toxic,100%,did not inhibit,
C/C1=C2/[N-][C@H]([C@H](CC(N)=O)[C@@]2(C)CCC(=O)NC[C@@H](C)OP(=O)([O-])O[C@H]2[C@@H](O)[C@@H](n3cnc4cc(C)c(C)cc43)O[C@@H]2CO)[C@]2(C)N=C(/C(C)=C3N=C(/C=C4N=C1[C@@H](CCC(N)=O)C\4(C)C)[C@@H](CCC(N)=O)[C@]\3(C)CC(N)=O)[C@@H](CCC(N)=O)[C@]2(C)CC(N)=O.[CH3-].[Co] [Me-Cbl],No inhibition,inhibited,No inhibition,inhibited,inhibition of RT activity was not observed,did not inhibit,,,,,,,,,
cyanocobalamin [CN-Cbl],No inhibition,little or no inhibitory activity,No inhibition,little or no inhibitory activity,inhibition of RT activity was not observed,,,,,,,,,,little or no inhibitory effect
